Results: the supplement of paper PMC10307832

Legend:
Experiment in all cases: relative viability (nuclei count vs DMSO), 5 days (fraction); higher = more cells survive
[1] = compound: C1CC1C(=O)NC2=NNC3=C2C=CC(=C3)C4=CC(=CC=C4)C(=O)NC5CC5 [XMD13-2] + COc1cccc2cc(-c3nc([C@H]4CC[C@H](C(=O)O)CC4)n4ncnc(N)c34)[nH]c12 [OSI-027] (partner 0.5 µM)
Procedure, shortened: (§1)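 Lung cancer cell lines in 1536-well plates were dosed by pin tool the day after seeding, either with one drug alone or with a fixed anchor-drug dose plus five library-drug doses (not always all listed) in √10 steps. After 5 days, cells were fixed and their nuclei stained in one step (final 0.05% Triton X-100, 1% formaldehyde, 1 ug/ml Hoechst), then counted on 4× images. Relative viability is the nuclei count in treated wells divided by that in vehicle wells. Values are medians of duplicate plates.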

[2] = compound: C1CC1C(=O)NC2=NNC3=C2C=CC(=C3)C4=CC(=CC=C4)C(=O)NC5CC5 [XMD13-2] + CS(=O)(=O)N1CCN(Cc2cc3nc(-c4cccc5[nH]ncc45)nc(N4CCOCC4)c3s2)CC1 [Pictilisib] (partner 1 µM)
Procedure, shortened: as §1

[3] = compound: Cc1ccc(C(=O)Nc2cccc(C(F)(F)F)c2)cc1Nc1cncc(C(N)=O)c1 [ALW-II-49-7] + Cc1nc(NC(=O)N2CCC[C@H]2C(N)=O)sc1-c1ccnc(C(C)(C)C(F)(F)F)c1 [Alpelisib] (partner 2 µM)
Procedure, shortened: as §1

[4] = compound: Cc1ccc(C(=O)Nc2cccc(C(F)(F)F)c2)cc1Nc1cncc(C(N)=O)c1 [ALW-II-49-7] + O=C(CCCCCCC(=O)Nc1ccccc1)NO [Vorinostat] (partner 1 µM)
Procedure, shortened: as §1

| Cell Line | relative viability ([1]; first compound 0.05 µM) | relative viability ([1]; first compound 0.1581 µM) | relative viability ([1]; first compound 0.5 µM) | relative viability ([1]; first compound 1.581 µM) | relative viability ([1]; first compound 5 µM) | relative viability ([2]; first compound 0.05 µM) | relative viability ([2]; first compound 0.1581 µM) | relative viability ([2]; first compound 0.5 µM) | relative viability ([2]; first compound 1.581 µM) | relative viability ([2]; first compound 5 µM) | relative viability ([3]; first compound 0.08 µM) | relative viability ([3]; first compound 0.253 µM) | relative viability ([3]; first compound 0.8 µM) | relative viability ([3]; first compound 2.53 µM) | relative viability ([3]; first compound 8 µM) | relative viability ([4]; first compound 0.253 µM) | relative viability ([4]; first compound 0.8 µM) | relative viability ([4]; first compound 2.53 µM) | relative viability ([4]; first compound 8 µM) | relative viability ([4]; first compound 0.08 µM) |
| --- | --- | --- | --- | --- | --- | --- | --- | --- | --- | --- | --- | --- | --- | --- | --- | --- | --- | --- | --- | --- |
| LU99A | 0.312 | 0.273 | 0.264 | 0.302 | 0.29 | 0.298 | 0.334 | 0.32 | 0.284 | 0.254 | 0.491 | 0.527 | 0.481 | 0.482 | 0.532 | 0.525 | 0.507 | 0.5 | 0.619 |  |
| LXF-289 | 0.874 | 0.761 | 0.829 | 0.697 | 0.867 | 0.941 | 0.728 | 0.806 | 0.714 | 0.642 | 1.07 | 1.01 | 1.01 | 1.17 | 1.08 | 0.877 | 0.81 | 0.854 | 0.762 | 0.726 |
| NCI-H23 | 0.761 | 0.544 | 0.593 | 0.411 | 0.783 | 0.579 | 0.438 | 0.503 | 0.446 | 0.457 | 0.692 | 0.803 | 0.613 | 0.726 | 0.985 | 0.692 | 0.339 | 0.575 | 0.46 | 0.634 |
| NCI-H322M | 0.576 | 0.507 | 0.519 | 0.588 | 0.593 | 0.593 | 0.495 | 0.451 | 0.501 | 0.578 | 0.724 | 0.739 | 0.957 | 0.759 | 0.8 | 0.93 | 0.861 | 0.93 | 0.773 | 0.789 |
| NCI-H358 | 0.97 | 0.686 | 0.848 | 0.726 | 0.442 | 0.32 | 0.24 | 0.354 | 0.313 | 0.365 | 0.718 | 0.802 | 0.925 | 0.965 | 0.902 | 0.694 | 0.805 | 0.574 | 0.447 | 1 |
| NCI-H441 | 0.682 | 0.777 | 0.578 | 0.485 | 0.588 | 0.445 | 0.505 | 0.539 | 0.37 | 0.411 | 0.854 | 0.771 | 0.768 | 0.48 | 0.591 | 0.788 | 0.901 | 0.549 | 0.538 | 0.669 |
| NCI-H460 | 0.939 | 0.837 | 0.713 | 0.723 | 0.645 | 0.532 | 0.324 | 0.363 | 0.4 | 0.36 | 0.513 | 0.542 | 0.323 | 0.453 | 0.395 | 0.857 | 0.69 | 0.497 | 0.498 | 0.763 |
| NCI-H520 | 0.306 | 0.278 | 0.232 | 0.294 | 0.225 | 0.318 | 0.299 | 0.313 | 0.275 | 0.251 | 0.799 | 0.865 |  | 0.964 | 0.954 | 0.649 | 0.681 | 0.696 | 0.617 | 0.782 |
| NCI-H596 | 0.776 | 0.673 | 0.715 | 0.79 | 0.985 | 0.447 | 0.406 | 0.351 | 0.384 | 0.411 | 0.443 | 0.513 | 0.497 | 0.469 | 0.438 | 0.574 | 0.586 | 0.683 | 0.456 | 0.488 |
| NCI-H647 | 0.779 | 0.781 | 0.669 | 0.59 | 0.508 | 0.534 | 0.491 | 0.393 | 0.296 | 0.277 | 0.769 | 1.13 | 1.19 | 0.882 | 0.557 | 0.642 | 0.599 | 0.321 | 0.349 | 0.539 |
| NCI-H650 | 0.522 | 0.512 | 0.599 | 0.474 | 0.522 | 0.921 | 0.827 | 0.924 | 0.859 | 0.801 | 1.14 | 1.08 | 1.13 | 0.353 | 0.669 | 0.461 | 0.579 | 0.42 | 0.374 | 0.351 |
| NCI-H661 | 0.848 | 0.688 | 0.786 | 0.63 | 0.494 | 0.469 | 0.529 | 0.421 | 0.344 | 0.383 | 0.665 | 0.691 | 0.645 |  | 0.522 | 0.859 | 0.823 | 0.795 | 0.79 | 0.854 |
| NCI-H727 | 0.543 | 0.68 | 0.573 | 0.54 | 0.664 | 0.421 | 0.321 | 0.36 | 0.527 | 0.551 | 0.716 | 0.572 | 0.538 | 0.678 | 0.541 | 1.33 | 1.02 | 1.14 | 1.12 | 1.16 |
| NCI-H838 | 0.432 | 0.402 | 0.339 | 0.398 | 0.437 | 0.423 | 0.512 | 0.497 | 0.447 | 0.466 | 0.847 | 1.13 | 1 | 1.13 | 0.987 | 0.748 | 0.693 | 0.759 | 0.769 | 0.778 |
| NCI-H1355 | 0.48 | 0.413 | 0.394 | 0.382 | 0.387 | 0.45 | 0.406 | 0.415 | 0.496 | 0.366 | 0.696 | 0.867 | 0.832 | 0.679 | 0.645 | 0.618 | 0.615 | 0.591 | 0.597 | 0.63 |
| NCI-H1395 | 0.684 | 0.757 | 0.653 | 0.633 | 0.647 | 0.724 | 0.646 | 0.623 | 0.574 | 0.528 | 1.22 | 1.1 | 1.04 | 0.307 | 1.09 | 0.699 | 0.733 |  | 0.569 | 0.649 |
| NCI-H1437 | 0.958 | 0.929 | 0.885 | 0.873 | 0.985 | 0.522 | 0.454 | 0.601 | 0.509 | 0.382 | 0.949 | 1.01 |  | 0.901 | 0.959 | 0.926 | 0.822 | 0.756 | 0.699 | 0.831 |
| NCI-H1651 | 0.813 | 0.716 | 0.768 | 0.747 | 0.778 | 0.819 | 0.477 | 0.661 | 0.64 | 0.548 | 1.01 | 0.832 | 0.746 | 0.919 | 0.835 | 0.665 | 0.579 | 0.54 | 0.555 | 0.576 |
| NCI-H1666 | 0.869 | 0.839 | 0.862 | 0.814 | 0.817 | 0.566 | 0.479 | 0.59 | 0.349 | 0.492 | 1.05 | 1.07 | 0.853 | 0.951 | 0.868 | 1.07 | 1.11 | 0.971 | 1 | 0.903 |
| NCI-H1734 | 0.683 | 0.554 | 0.647 | 0.502 | 0.447 | 0.558 | 0.45 | 0.444 | 0.423 | 0.389 | 0.645 | 0.774 | 0.657 | 0.694 | 0.577 | 0.8 | 0.78 | 0.795 | 0.727 | 0.763 |
| NCI-H1755 | 0.798 | 0.699 | 0.797 | 0.576 | 0.775 | 0.548 | 0.411 | 0.48 | 0.315 | 0.496 | 0.931 | 0.965 | 0.909 | 0.807 | 0.818 | 0.83 | 0.783 | 0.685 | 0.608 | 0.88 |
| NCI-H1793 | 0.404 |  | 0.255 | 0.277 | 0.271 | 0.288 | 0.442 | 0.373 | 0.403 | 0.192 | 0.717 | 0.673 | 0.752 | 0.716 | 0.884 | 0.811 | 0.616 | 0.798 | 0.431 | 0.816 |
| NCI-H1915 | 0.756 | 0.591 | 0.645 | 0.548 | 0.595 | 0.981 | 0.884 | 1.07 | 0.9 | 0.919 | 1.1 | 1.13 | 1.08 | 0.978 | 0.731 | 0.483 | 0.498 | 0.348 | 0.256 | 0.585 |
| NCI-H1944 | 0.499 | 0.395 | 0.362 | 0.471 | 0.43 | 0.352 | 0.345 | 0.357 | 0.373 | 0.333 | 0.817 | 0.836 | 0.807 | 0.916 | 0.941 | 0.613 | 0.497 | 0.478 | 0.377 | 0.659 |
| NCI-H1975 | 0.829 | 0.776 | 0.824 | 0.786 | 0.774 | 0.319 | 0.3 | 0.333 | 0.322 | 0.325 | 0.534 | 0.62 | 0.641 | 0.662 | 0.485 | 0.686 | 0.643 | 0.66 | 0.542 | 0.713 |
| NCI-H1993 | 0.448 | 0.5 | 0.511 | 0.558 | 0.432 | 0.846 | 0.783 | 0.781 | 0.937 | 0.845 | 0.691 | 0.644 | 0.671 | 0.72 | 0.688 | 0.72 | 0.837 | 0.828 | 0.796 | 0.843 |
| NCI-H2009 | 0.69 | 0.563 | 0.815 | 0.634 | 0.66 | 0.838 | 0.945 | 0.904 | 0.822 | 0.566 | 1.12 | 1.09 | 1.12 | 0.957 | 0.825 | 0.838 | 0.731 | 0.695 | 0.657 | 0.749 |
